Laboratory results from ChEMBL document CHEMBL1148430, “Synthesis of novel 2-nitroimidazole-tethered tricyclic quinolines, bearing a second heteroatom, and their in vitro evaluation as hypoxia-selective cytotoxins and radiosensitizers” (Bioorg Med Chem Lett, 2004).

Tested on: not listed separately
Assay: Partition coefficient in octanol/water
Format: physicochemical
Details: not given

Going from `Cl.O=[N+]([O-])c1nccn1CCCNc1c2c(nc3ccccc13)CCSC2` to `Cl.O=[N+]([O-])c1nccn1CCCNc1c2c(nc3ccccc13)CCCC2`, the PC falls from 0.4 to 0.14.

First: Cl.O=[N+]([O-])c1nccn1CCCNc1c2ccccc2nc2ccccc12
Second: CN1CCc2nc3ccccc3c(NCCCn3ccnc3[N+](=O)[O-])c2C1.Cl
The PC of the first is lower: 0.07 for the first, 0.41 for the second.

Tested on: V79
Assay: Cytotoxicity of compound was measured against suspended V79 cells under aerobic conditions in clonogenic assay
Format: functional, Cricetulus griseus
Details: not given

Going from `Cl.O=[N+]([O-])c1nccn1CCCNc1c2c(nc3ccccc13)CCSC2` to `Cl.O=[N+]([O-])c1nccn1CCCNc1c2c(nc3ccccc13)CCCC2`, the CT50 falls from 580 µM to 360 µM (1.6-fold).

Going from `Cl.O=[N+]([O-])c1nccn1CCCNc1c2ccccc2nc2ccccc12` to `CN1CCc2nc3ccccc3c(NCCCn3ccnc3[N+](=O)[O-])c2C1.Cl`, the CT50 rises from 84 µM to 426 µM (5.1-fold).

Tested on: V79
Assay: Cytotoxicity of compound was measured against suspended V79 cells under hypoxic conditions in clonogenic assay
Format: functional, Cricetulus griseus
Details: not given

Compared with `Cl.O=[N+]([O-])c1nccn1CCCNc1c2c(nc3ccccc13)CCSC2`, `Cl.O=[N+]([O-])c1nccn1CCCNc1c2c(nc3ccccc13)CCCC2` is 2.1-fold lower in CT50: 68 µM for the first, 33 µM for the second.

With `Cl.O=[N+]([O-])c1nccn1CCCNc1c2ccccc2nc2ccccc12` the CT50 was 15 µM.

Tested on: not listed separately
Assay: In vitro therapeutic index of compound was measured inV79 cells
Format: cell-based, Cricetulus griseus
Details: chinese hamster, V79 cells; read-out: T.I.

Going from `Cl.O=[N+]([O-])c1nccn1CCCNc1c2c(nc3ccccc13)CCSC2` to `Cl.O=[N+]([O-])c1nccn1CCCNc1c2c(nc3ccccc13)CCCC2`, the selectivity ratio rises from 15 to 20.

First: Cl.O=[N+]([O-])c1nccn1CCCNc1c2ccccc2nc2ccccc12
Second: CN1CCc2nc3ccccc3c(NCCCn3ccnc3[N+](=O)[O-])c2C1.Cl
The selectivity ratio of the first is higher: 11 for the first, 7 for the second.

Tested on: not listed separately
Assay: Concentration required to reduce fluorescence in ethidium bromide displacement assay using EB-DNA complex
Details: not given

`Cl.O=[N+]([O-])c1nccn1CCCNc1c2c(nc3ccccc13)CCSC2` and `Cl.O=[N+]([O-])c1nccn1CCCNc1c2c(nc3ccccc13)CCCC2` are the same in C50: 58 µM for the first, 58 µM for the second.

First: Cl.O=[N+]([O-])c1nccn1CCCNc1c2ccccc2nc2ccccc12
Second: CN1CCc2nc3ccccc3c(NCCCn3ccnc3[N+](=O)[O-])c2C1.Cl
The C50 of the first is 5-fold lower: 9 µM for the first, 45 µM for the second.

Tested on: not listed separately
Assay: Ratio (HS) of CT50 values in aerobic condition to hypoxic condition (in N2 presence) given as CT50(A)/CT50(H)
Format: functional
Details: not given

First: Cl.O=[N+]([O-])c1nccn1CCCNc1c2c(nc3ccccc13)CCSC2
Second: Cl.O=[N+]([O-])c1nccn1CCCNc1c2c(nc3ccccc13)CCCC2
The Ratio of the first is lower: 9 for the first, 11 for the second.

Compared with `Cl.O=[N+]([O-])c1nccn1CCCNc1c2ccccc2nc2ccccc12`, `CN1CCc2nc3ccccc3c(NCCCn3ccnc3[N+](=O)[O-])c2C1.Cl` is lower in Ratio: 5.5 for the first, 2.2 for the second.
